{
  "source": "patent US9487519B2",
  "about": "“5,6-Dialkyl-7-aminotriazolopyrimidines, their preparation and their use for controlling harmful fungi, and compositions comprising these compounds” (BASF SE, priority 2004, dated 2016)",
  "key": {"[1]": {"tested_on": "Plasmopara viticola", "test": "Activity against Peronospora of grapevines caused by Plasmopara viticola (Use Example 1)", "type": "in vivo", "conditions": "250 ppm, potted vines sprayed to runoff, inoculated next day; untreated plants 95% infected", "protocol": "The active compounds were prepared as a stock solution comprising 25 mg of active compound which was made up to 10 ml using a mixture of acetone and/or DMSO and the emulsifier Uniperol® EL (wetting agent having emulsifying and dispersing agent based on ethoxylated alkylphenols) in a ratio by volume of solvent/emulsifier of 99/1. The mixture was then made up to 100 ml with water. This stock solution was, using the solvent/emulsifier/water mixture described, diluted to the active compound concentration stated below.\nLeaves of potted vines were sprayed to runoff point with an aqueous suspension having the concentration of active compound stated below. The next day, the undersides of the leaves were inoculated with an aqueous sporangia suspension of Plasmopara viticola. The vines were then initially placed in a water-vapor-saturated chamber at 24° C. for 48 hours and then in a greenhouse at temperatures between 20° C. and 30° C. for 5 days. After this time, the plants were once more placed in a humid chamber for 16 hours to promote the eruption of sporangiophores. The extent of the development of the infection on the undersides of the leaves was then determined visually."}, "[2]": {"tested_on": "Phytophthora infestans", "type": "in vivo", "conditions": "250 ppm, potted tomato plants sprayed to runoff, infected next day, assessed after 6 days; untreated plants 100% infected"}},
  "data": [
    {"compound": "CCCCCCCCc1c(CC)nc2ncnn2c1N", "note": "[I-2, 7-amino-5-ethyl-6-octyl[1,2,4]triazolo[1,5-a]pyrimidine]", "values": [
      {"measurement": "infection on the undersides of the leaves, determined visually", "setting": "[1]", "value": "no infection"},
      {"measurement": "infection (late blight), determined visually", "setting": "[2]", "value": "no infection"}
    ]}
  ]
}
